Reference: patent publication US20100022559A1, “BISOXIMES AS FUNGICIDES” (BAYER CROPSCIENCE AG, priority 2006, published 2010)
Where two headings read alike, the source gives them in different places.

Experiment: logP determination by HPLC on a reversed-phase column (C 18), EEC Directive 79/831 Annex V.A8
Format: physicochemical
Conditions: for chromatographic logP: HCO2H, HPLC reversed-phase column (C 18), 43° C., read-out: logP (HCO2H)
Description: The stated logP values were determined in accordance with EEC Directive 79/831 Annex V.A8 by HPLC (high performance liquid chromatography) on a reversed-phase column (C 18). Temperature: 43° C.

[1] = reversed-phase HPLC column (C 18)

Structure (SMILES)	logP (value marked [b])	logP (method marked [b] in Table 1)	further results
CCC(=NOCCCCON=C(C)c1cccc(C)n1)c1ncccc1C (single isomer, unassigned) [compound 529]	2.98^[b] (isomer )A		
CC(=NOCCCCON=C(CC(C)C)c1cccc(C)n1)c1cccc(C)n1 (single isomer, unassigned) [compound 530]	5.48^[b] (isomer B)		
CC(=NOCCCCCCON=C(Cc1ccccc1)c1ncccc1C)c1cccc(C)n1 (single isomer, unassigned) [compound 531]	4.97^b] (isomer )A		
CCC(=NOCCCCCCON=C(C)c1cccc(C)n1)c1ncccc1C (single isomer, unassigned) [compound 532]	3.99^b] (isomer )A		
C=C(CON=C(C)c1ccnc(C)c1)CON=C(C)c1cccc(C)n1 (single isomer, unassigned) [compound 533]	1.74^[b] (isomer A)		
C=C(CON=C(C)c1cccc(C)n1)CON=C(CCC)c1ncccc1C (single isomer, unassigned) [compound 534]	3.65^[b] (isomer A)		
C=C(CON=C(C)c1cccc(C)n1)CON=C(CCC)c1ncccc1C (single isomer, unassigned) [compound 535]		4.46^[b] (isomer B)	
C=C(CON=C(C)c1cccc(C)n1)CON=C(c1cccc(C)n1)C1CC1 (single isomer, unassigned) [compound 536]		3.19^[b] (isomer A)	
C=C(CON=C(C)c1cccc(C)n1)CON=C(c1cccc(C)n1)C1CC1 (single isomer, unassigned) [compound 537]		3.46^[b] (isomer B)	
CC(=NOCCCCCCON=C(C)c1nc(C)c(C)s1)c1cccc(C)n1 (single isomer, unassigned) [compound 539]		4.86^[b] v(isomer B)	
CC(=NOCCCCON=C(C)c1sc(C)nc1C)c1cccc(C)n1 (single isomer, unassigned) [compound 540]		3.56^[b] (isomer A)	
CC(=NOCCCCCCON=C(C)c1sc(C)nc1C)c1cccc(C)n1 (single isomer, unassigned) [compound 542]		3.99^[b] (isomer A)	
CC(=NOCCCCCCON=C(C)c1sc(C)nc1C)c1cccc(C)n1 (single isomer, unassigned) [compound 543]		4.74^[b] (isomer B)	
C=C(CON=C(C)c1cccc(C)n1)CON=C(C)c1sc(C)nc1C (single isomer, unassigned) [compound 544]		3.00^b] (Isomer A)	
C=C(CON=C(C)c1cccc(C)n1)CON=C(C)c1sc(C)nc1C (single isomer, unassigned) [compound 545]		3.58^[b] (isomer B)	
CCCC(=NOCC(C)CON=C(C)c1cccc(C)n1)c1ncccc1C (single isomer, unassigned) [compound 548]		3.85^[b] (isomer A)	
CCCC(=NOCC(C)CON=C(C)c1cccc(C)n1)c1ncccc1C (single isomer, unassigned) [compound 549]		4.68^[b] (isomer B)	
Cc1cccc(C(=NOCC(C)CON=C(c2ccccc2)c2cccc(C)n2)c2ccccc2)n1 (single isomer, unassigned) [compound 661]			logP (method marked [a] in Table 1): 4.10^[a] (isomer A)
C=C(CON=Cc1cccc(C)n1)CON=Cc1cccc(C)n1 (single isomer, unassigned) [compound 662]		2.16^[b] (isomer B)	
C=C(CON=Cc1cccc(C)n1)CON=Cc1cccc(C)n1 (single isomer, unassigned) [compound 664]		2.13^[b] (isomer A)	
CCC(=NOCC(C)CON=C(CC)c1cc(C)cc(C)n1)c1cc(C)cc(C)n1 (single isomer, unassigned) [compound 691]			logP (method marked [a] in Table 1): 2.75^[a] (isomer A)
CCC(CON=C(C)c1nc(C)ccc1C)CON=C(C)c1nc(C)ccc1C (single isomer, unassigned) [compound 750]		2.57^[b]	logP (method marked [c] in Table 1): 4.46^[c]
CCC(CON=C(C)c1nc(C)ccc1C)CON=C(C)c1nc(C)ccc1C (single isomer, unassigned) [compound 751]		3.19^[b]	logP (method marked [c] in Table 1): 5.54^[c]
CC(=NOCC(CON=C(C)c1nc(C)ccc1C)C(C)C)c1nc(C)ccc1C (single isomer, unassigned) [compound 752]		2.89^[b]	logP (method marked [c] in Table 1): 4.85^[c]
CC(=NOCC(CON=C(C)c1nc(C)ccc1C)c1ccccc1)c1nc(C)ccc1C (single isomer, unassigned) [compound 754]		2.91^[b]	logP (method marked [c] in Table 1): 4.59^[c]
CC(=NOCC(CON=C(C)c1nc(C)ccc1C)c1ccccc1)c1nc(C)ccc1C (single isomer, unassigned) [compound 755]		3.62^[b]	logP (method marked [c] in Table 1): 5.45^[c]

Structure (SMILES)	logP (value marked [b])	logP (method marked [b] in Table 1)	further results
CC(=NOCC(CON=C(C)c1nc(C)ccc1C)C(C)(C)C)c1nc(C)ccc1C (single isomer, unassigned) [compound 756]		3.22^[b]	logP (method marked [c] in Table 1): 5.20^[c]
CC(=NOCC(CON=C(C)c1nc(C)ccc1C)C(C)(C)C)c1nc(C)ccc1C (single isomer, unassigned) [compound 757]		5.09^[b]	logP (method marked [c] in Table 1): 6.38^[c]
CC(=NOCCC(C)ON=C(C)c1nc(C)ccc1C)c1nc(C)ccc1C (single isomer, unassigned) [compound 758]		2.13^[b]	logP (method marked [c] in Table 1): 4.03^[c]
CC(=NOCCC(C)ON=C(C)c1nc(C)ccc1C)c1nc(C)ccc1C (single isomer, unassigned) [compound 759]		3.12^[b]	logP (method marked [c] in Table 1): 5.02^[c]
CC(=NOCC1(CON=C(C)c2nc(C)ccc2C)CCC1)c1nc(C)ccc1C (single isomer, unassigned) [compound 760]	2.72^[b]		logP (method marked [c] in Table 1): 4.72^[c]
CC(=NOCC1(CON=C(C)c2nc(C)ccc2C)CCC1)c1nc(C)ccc1C (single isomer, unassigned) [compound 761]	3.77^[b]		logP (value marked [c]): 5.84^[c]
CC(=NOCC1(CON=C(C)c2nc(C)ccc2C)CCCC1)c1nc(C)ccc1C (single isomer, unassigned) [compound 762]	3.04^[b]		logP (value marked [c]): 5.14^[c]
CC(=NOCC1(CON=C(C)c2nc(C)ccc2C)CC1)c1nc(C)ccc1C (single isomer, unassigned) [compound 764]	2.17^[b]		logP (value marked [c]): 4.00^[c]
CC(=NOCC1(CON=C(C)c2nc(C)ccc2C)CC1)c1nc(C)ccc1C (single isomer, unassigned) [compound 765]	3.15^[b]		logP (value marked [c]): 4.95^[c]
CC(=NOC/C=C/CON=C(C)c1nc(C)c(C)s1)c1nc(C)c(C)s1 (single isomer, unassigned) [compound 766]	5.08^[b] (isomer A)		
CC(=NOC/C=C/CON=C(C)c1nc(C)c(C)s1)c1nc(C)c(C)s1 (single isomer, unassigned) [compound 767]	4.92^[b] (isomer B)		
COCc1nc(C(N)=NOC/C=C/CON=C(N)c2nc(COC)c(C)c(COC)n2)nc(COC)c1C (single isomer, unassigned) [compound 768]	1.68^[b] (isomer A)		
COCc1nc(C(N)=NOC/C=C/CON=C(N)c2nc(COC)c(C)c(COC)n2)nc(COC)c1C (single isomer, unassigned) [compound 769]	1.75^[b] (isomer B)		
Cc1cc(C)nc(C(N)=NOC/C=C/CON=C(N)c2cc(C)cc(C)n2)c1 (single isomer, unassigned) [compound 770]	2.55^[b] (isomer B)		
Cc1cc(C)nc(C(N)=NOC/C=C/CON=C(N)c2cc(C)cc(C)n2)c1 (single isomer, unassigned) [compound 771]	2.70^[b] (isomer A)		
CC(=NOc1nc(Cl)nc(ON=C(C)c2cccc(C)n2)c1Cl)c1cccc(C)n1 (single isomer, unassigned) [compound 779]	4.62^[b]		logP (value marked [c]): 5.09^[c]
CC(=NOc1nc(Cl)nc(ON=C(C)c2cccc(C)n2)c1Cl)c1cccc(C)n1 (single isomer, unassigned) [compound 780]	4.22^[b]		logP (value marked [c]): 4.88^[c]
CC(=NOCC(C)(C)CON=C(c1ccccc1)c1cccc(C)n1)c1cccc(C)n1 (single isomer, unassigned) [compound 879]	4.61^[b]		logP (value marked [c]): 4.52^[c]
C/C(=N\OCC(C)CO/N=C(\C)c1cccc(C)n1)c1cccc(C)n1 [1-(6-methylpyridin-2-yl)ethanone O,O′-(2-methylpropane-1,3-diyl)oxime]			chromatographic logP [1]: 2.31
C/C(=N\OCC1(CO/N=C(\C)c2ccc(C)c(C)n2)CC1)c1cc(C)cc(C)n1 [(1E)-1-(4,6-dimethylpyridin-2-yl)ethanone O-({1-[({[(1E)-1-(5,6-dimethylpyridin-2-yl)ethylidene]amino}oxy)methyl]cyclopropyl}methyl)oxime]			chromatographic logP [1]: 2.61
C/C(=N\OC[Si](C)(C)CO/N=C(\C)c1cccc(C)n1)c1cccc(C)n1 [(1E,1E′)-1-(6-methylpyridin-2-yl)ethanone O,O′-[(dimethylsilanediyl)bis(methylene)]oxime]			chromatographic logP: 4.5
CCC1=NOC(CO/N=C(\C)c2cccc(C)n2)(CO/N=C(\C)c2cccc(C)n2)C1 [(1E,1′E)-1-(6-methylpyridin-2-yl)ethanone O,O′-[(3-ethyl-4,5-dihydroisoxazole-5,5-diyl)bis(methylene)]oxime]			chromatographic logP [1]: 2.68
CC(=NOCC(C)(C)CO/N=C(\C)c1cccc(C)n1)c1cc(C)cc(C)n1 [(1E/Z)-1-(4,6-dimethylpyridin-2-yl)ethanone O-[2,2-dimethyl-3-({[(1E)-1-(6-methylpyridin-2-yl)ethylidene]amino}oxy)propyl]oxime]			chromatographic logP [1]: 3.33
C/C(=N\OCC(CO/N=C(\C)c1cccc(C)n1)=NO)c1cccc(C)n1 [(2E,9E)-2,10-bis(6-methylpyridin-2-yl)-4,8-dioxa-3,9-diazaundeca-2,9-dien-6-one oxime]			chromatographic logP [1]: 1.91
C/C(=N\OCC(=O)CO/N=C(\C)c1cccc(C)n1)c1cccc(C)n1 [(2E,9E)-2,10-bis(6-methylpyridin-2-yl)-4,8-dioxa-3,9-diazaundeca-2,9-dien-6-one]			chromatographic logP [1]: 2.2
